Legend:
[1] = test system: platelets produced from megakaryocytes; test: Flow cytometry analysis of platelet receptors (CD41, CD42b, CD61, CD49b) on produced platelets; assay type: cell-based, human; conditions: for proportion of platelets expressing CD42b receptor: compound in megakaryocyte suspension during 2 h perfusion vs without (10 μM ROCK inhibitor; 25 μM GM6001); for proportion of CD41+/CD42b+ platelet: compound during 2 hours of perfusion, without or with previous introduction during culture stage
Description: (§1) CD34^+ cells were isolated from human umbilical cord blood (UCB) by an immunomagnetic technique (Miltenyi Biotec, Paris, France) as previously reported (see Poirault-Chassac et al, “Notch/Delta4 signaling inhibits human megakaryocytic terminal differentiation”, Blood, vol. 116, no 25, p. 5670-5678, 2010). These blood samples were obtained after informed consent and approval from our Institute Ethics Committee and in accordance with the Declaration of Helsinki. CD34^+ cells were cultured in a humid atmosphere at 37° C. in 5% CO2 in complete medium consisting of Iscove modified Dulbecco medium (IMDM; Gibco Life Technologies, Saint-Aubin, France) supplemented with 15% BIT 9500 serum substitute (Stem Cells Technologies, Grenoble, France), α-monothioglycerol (Sigma-Aldrich, Saint-Quentin Fallavier, France) and liposomes (phosphatidyl-choline, cholesterol and oleic acid; SigmaAldrich). Human recombinant stem cell factor (SCF, 20 ng/mL; Miltenyi Biotec) and thrombopoietin peptide agonist AF13948 (TPO, 50 nM) (see Dunois-Lardé et al, “Exposure of human megakaryocytes to high shear rates accelerates platelet production”, Blood, vol. 114, no 9, p. 1875-1883, 2009) were added once at day 0 to the culture medium followed by addition of 20 nM TPO without SCF at day 5. Mature megakaryocytes are obtained after 12-14 days of culture. Removal of platelets formed during culture and immediately prior to shear exposure was performed by means of a BSA gradient according to the methods reported in (Robert A, Cortin V, Gamier A, Pineault N. Megakaryocyte and platelet production from human cord blood stem cells. Methods Mol Biol. 2012; 788: 219-47). The concentration was then adjusted to 200 000 megakaryocytes/mL. 10 μM ROCK inhibitor (Y27632, Sigma Aldrich, Saint Quentin Fallavier, France) may be added to the culture of megakaryocytes at day 8 of culture. Addition of 10 μM ROCK inhibitor was performed before introducing megakaryocytes suspension into the inlet chamber of the microfluidic device. 6.25 μM nicotinamide (N0636, Sigma Aldrich, Saint Quentin Fallavier, France) was added to the culture of megakaryocytes at day 8 of culture. Addition of 6.25 μM nicotinamide was performed before introducing megakaryocyte suspension into the inlet chamber of the microfluidic device. 20 μM blebbistatin (203390, Calbiochem) was added to the culture of megakaryocytes at day 8 of culture. Addition of 20 μM blebbistatin was performed before introducing megakaryocyte suspension into the inlet chamber of the microfluidic device. 10 μM latrunculin-A (sc202691, Santa Cruz Biotechnology) was added to the culture of megakaryocytes at day 8 of culture. Addition of 10 μM latrunculin-A was performed before introducing megakaryocyte suspension into the inlet chamber of the microfluidic device. 25 μM GM6001 (ab120845, Abcam) was added to the culture of megakaryocytes at day 8 of culture. Addition of 25 μM GM6001 was performed before introducing megakaryocyte suspension into the inlet chamber of the microfluidic device
Platelet production in the microfluidic device of geometry 2 was compared to control samples, consisting of platelet production from twenty-four hours static condition without the microfluidic chip. Expression of CD41 and CD42 antigens was characterized using a flow cytometer BD Fluorescence Accuri C6 ® (BD Biosciences, Le Pont de Claix, France). Platelets were incubated with fluorescein isothiocyanate (FITC)-conjugated anti-human CD41 (αIIb), R-phycoerythrin (PE)-conjugated anti-human CD42b (GPIbα) (both from Beckman Coulter, Villepinte, France) and FITC-conjugated anti-human activated αIIbb3 (BD Biosciences) during 15 minutes at 22° C., Controls were performed using FITC mouse IgG1 (Beckman Coulter), PE mouse IgG1 (Beckman Coulter). Single color flow cytometry analysis of platelet receptors was performed using the GP screen assay (Biocytex, Marseille, France). […]

[2] = test system: platelets produced from megakaryocytes; test: Activation of produced platelets by TRAP-6 (PAC1 binding, fibrinogen adhesion, tubulin/actin immunofluorescence); assay type: cell-based, human
Description: Image acquisition was performed with an Axio Observer microscope (Zeiss) at 40×1.6-fold magnification with a QIClick-F-CLR-12 Digital CCD Camera (Q Imaging). Platelets are adherent to fibrinogen.
FIG. 8 is a picture showing two colors flow cytometry analysis of platelets receptors with or without activation of the CD41/CD61 receptor by the agonist peptide of the PAR-1 thrombin receptor (TRAP6). (A) Histogram indicates, within the platelet gate, the % of PAC-1/CD42b positive elements before (black bars) or after (gray bars) TRAP-6 activation of platelets produced in the microfluidic device from megakaryocytes suspension in the absence (+/+2 h) or the presence (+/+2 h Ri) of ROCK inhibitor (Ri). […] No Ri was added during the culture stage. n=1.
Platelet production in the microfluidic device of geometry 2 was compared to control samples, consisting of platelet production from twenty-four hours static condition without the microfluidic chip. Expression of CD41 and CD42 antigens was characterized using a flow cytometer BD Fluorescence Accuri C6 ® (BD Biosciences, Le Pont de Claix, France). […] The number of antigenic sites is determined by converting the fluorescence intensity into corresponding numbers of monoclonal antibodies bound per platelet based on a calibrated bead standard curve. […]

megakaryocytes [3] = test: Platelet release in the microfluidic device after two hours of perfusion, hemocytometer counting; assay type: cell-based, human; conditions: compound in suspension during 2 h perfusion stage, absent during culture stage (10 μM ROCK inhibitor; 6.25 μM nicotinamide)
Description: CD34^+ cells were isolated from human umbilical cord blood (UCB) by an immunomagnetic technique (Miltenyi Biotec, Paris, France) as previously reported (see Poirault-Chassac et al, “Notch/Delta4 signaling inhibits human megakaryocytic terminal differentiation”, Blood, vol. 116, no 25, p. 5670-5678, 2010). These blood samples were obtained after informed consent and approval from our Institute Ethics Committee and in accordance with the Declaration of Helsinki. CD34^+ cells were cultured in a humid atmosphere at 37° C. in 5% CO2 in complete medium consisting of Iscove modified Dulbecco medium (IMDM; Gibco Life Technologies, Saint-Aubin, France) supplemented with 15% BIT 9500 serum substitute (Stem Cells Technologies, Grenoble, France), α-monothioglycerol (Sigma-Aldrich, Saint-Quentin Fallavier, France) and liposomes (phosphatidyl-choline, cholesterol and oleic acid; SigmaAldrich). Human recombinant stem cell factor (SCF, 20 ng/mL; Miltenyi Biotec) and thrombopoietin peptide agonist AF13948 (TPO, 50 nM) (see Dunois-Lardé et al, “Exposure of human megakaryocytes to high shear rates accelerates platelet production”, Blood, vol. 114, no 9, p. 1875-1883, 2009) were added once at day 0 to the culture medium followed by addition of 20 nM TPO without SCF at day 5. Mature megakaryocytes are obtained after 12-14 days of culture. […]

megakaryocytes [4] = test: Megakaryocyte capture and elongation in the microfluidic device (surface density of captured and elongated megakaryocytes); assay type: cell-based, human; conditions: for elongation process and beads-on-a-thread structure formation: compound added to megakaryocyte suspension during perfusion (10 μM ROCK inhibitor; 6.25 μM nicotinamide)
Description: as §1
All the devices are composed of 16 parallel channels organized in a serpentine shape (FIG. 16). The channels were textured on the straight parts (13.2 cm long) and patterned with the parameters: r=15 μm, H=50 μm, H/h=1.
The microfluidic chip was set on the stage of an inverted microscope (DMI6000 B, Leica Microsystems GmbH, Germany). A computer assisted motorized stage control was used to record positions along the channel length. We recorded observation field positions and alternated recording images between them along the experiment time. Differential interference contrast objective was used to record movies and images between 10× and 40×. A CMOS high-speed camera (Fastcam SA3, Photron, USA) was used to record images at frequencies from 0.5 to 1500 Hz.
Surface captured cells were counted manually from the recorded channel images, and cells in suspension were counted with a hematocytometer.

megakaryocytes [5] = conditions: cited from earlier work; for megakaryocyte ploidy / polyploidization: culture conditions, literature
[6] = 10 μM ROCK inhibitor in suspension during perfusion, absent during culture stage, count after 35 min of perfusion
[7] = channels coated at 40 μg·mL^−1, t=35 min, ROCK inhibitor in culture (day 8) and perfusion

Row | Compound | proportion of platelets expressing CD42b receptor [1] | platelet release vs suspension without compound (megakaryocytes [3]) | elongation process and beads-on-a-thread structure formation (megakaryocytes [4]) | proportion of CD41+/CD42b+ platelet [1] | megakaryocyte ploidy / polyploidization (megakaryocytes [5]) | further results
1 | O=S(=O)(c1cccc2c(O)nccc12)N1CCCNCC1 [ROCK inhibitor, 1-(1-Hydroxy-5-isoquinolinesulfonyl)homopiperazine] | higher | significant higher platelet release | No differences | – | – | characteristics of produced platelets (CD61, CD42b, CD49b receptor density) vs platelets isolated from blood ([1]; ROCK inhibitor during 2 h perfusion, FIG. 6): comparable to those of natural platelets; tubulin conformation of produced platelets upon TRAP-6 stimulation ([2]; ROCK inhibitor during 2 h perfusion, platelets adherent to fibrinogen, FIG. 7): tubulin conformation typical of a transient activation; conformation of the αIIbβ3 receptors (PAC1 binding) upon TRAP-6 stimulation ([2]; platelets from suspension with ROCK inhibitor, FIGS. 8 and 9): activated conformation; captured megakaryocytes density, ROCK inhibitor added vs not added (megakaryocytes [4]; [6]): 1.42±0.13 fold; elongated megakaryocytes density, ROCK inhibitor added vs not added (megakaryocytes [4]; [6]): 2.98±0.28 fold
2 | VWF: Human von Willebrand factor, used as surface coating of the platelet production channel | – | – | – | – | – | captured megakaryocytes density, VWF coating vs BSA coating (megakaryocytes [4]; [7]): 5.86±1 fold; elongated megakaryocytes density, VWF coating vs BSA coating (megakaryocytes [4]; [7]): 7.72±1.32 fold
3 | NC(=O)c1cccnc1 [nicotinamide, pyridine-3-carboxamide] | – | higher platelet release | No differences | higher | increases | –
4 | Cc1ccc2c(c1)C(=O)C1(O)CCN(c3ccccc3)C1=N2 (centres unmarked) [blebbistatin, 1-Phenyl-1,2,3,4-tetrahydro-4-hydroxpyrrolo[2,3-b]-7-methylquinolin-4-one] | – | – | – | higher | – | –
5 | CNC(=O)[C@H](Cc1c[nH]c2ccccc12)NC(=O)[C@@H](CC(=O)NO)CC(C)C [GM6001, N-[(2R)-2-(hydroxamidocarbonylmethyl)-4-methylpentanoyl]-L-tryptophan methylamide] | higher | – | – | – | – | proportion of platelet CD42b+ ([1]; GM6001 during the culture as well as during the 2 hours perfusion stage): increased
6 | C/C1=C/C(=O)O[C@@H]2C[C@@H](CC[C@H](C)/C=C\C=C\CC1)O[C@@](O)([C@@H]1CSC(=O)N1)C2 [latrunculin, Latrunculin A] | – | – | – | higher | increase | megakaryocyte apoptosis activation (megakaryocytes [5]; literature (Avanzi et al)): increase

— patent US20230347344A1, “COMBINATION OF PHARMACOLOGICAL AND MICROFLUIDIC FEATURES FOR IMPROVED PLATELETS PRODUCTION” (HEMOSTOD SA, priority 2015, published 2023)
